The values that follow come from ChEMBL document CHEMBL4346735, “Discovery and pharmacological evaluation of indole derivatives as potent and selective RORγt inverse agonist for multiple autoimmune conditions” (Bioorg Med Chem Lett, 2019).

Structures are written as SMILES.

Series [1] is described as follows: Metabolic stability in simulated intestinal fluid assessed as compound remaining after 60 mins. The class given is ADME. The settings on record: read-out: Stability.
Series [2] can be described thus: Metabolic stability in simulated intestinal fluid assessed as compound remaining after 2 hrs. The class given is ADME. The settings on record: read-out: Stability.
A short description of series [3]: Plasma protein binding in human. Format: ADME. The settings on record: read-out: PPB.
Series [4] can be described thus: Cmax in mouse at 10 mg/kg, po. Also noted: dose 10 mg/kg, route oral. Format: ADME, organism-based. The settings on record: in vivo.
Series [5] in a line: Oral bioavailability in mouse at 10 mg/kg. The settings on record: in vivo. Format: ADME, organism-based.
Series [6] in a line: AUC in mouse brain at 10 mg/kg, po. Format: ADME, organism-based.
A short description of series [7]: AUC in mouse skin at 10 mg/kg, po. The class given is ADME, organism-based, Zone of skin.
The test system of series [8] is Mus musculus. Kind of series: Immunosuppressive activity in MOG (35 to 55 residues)/pertussis toxin-induced experimental allergic encephalomyelitis C57BL/6J mouse model assessed as reduction in disease severity score at 3 mg/kg, po bid measured at day 23 relative to dexamethasone. The settings on record: 552 h. The class given is functional.
Series [9] deals with T1, Nuclear receptor ROR-alpha (Homo sapiens, UniProt P35398).
T1 sequence (P35398 whole entry): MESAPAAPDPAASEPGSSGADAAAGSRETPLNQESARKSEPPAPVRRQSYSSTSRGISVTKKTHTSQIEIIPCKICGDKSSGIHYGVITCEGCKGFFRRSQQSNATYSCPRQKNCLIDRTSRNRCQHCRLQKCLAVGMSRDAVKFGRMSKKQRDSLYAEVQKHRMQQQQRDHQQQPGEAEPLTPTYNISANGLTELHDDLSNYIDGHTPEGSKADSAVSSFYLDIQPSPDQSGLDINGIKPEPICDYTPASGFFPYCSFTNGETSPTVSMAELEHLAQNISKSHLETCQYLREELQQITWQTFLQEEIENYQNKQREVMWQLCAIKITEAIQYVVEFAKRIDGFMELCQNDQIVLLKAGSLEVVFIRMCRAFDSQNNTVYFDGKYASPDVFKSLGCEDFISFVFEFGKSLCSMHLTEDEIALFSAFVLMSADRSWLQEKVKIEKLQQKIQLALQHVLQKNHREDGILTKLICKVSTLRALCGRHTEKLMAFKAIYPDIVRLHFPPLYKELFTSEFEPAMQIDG
Put plainly: Inhibition of GAL4-DBD fused RORalpha LBD (unknown origin) expressed in HEK293T cells. The class given is cell-based.

For series [10], the system named is Mus musculus. Kind of series: Immunosuppressive activity in MOG (35 to 55 residues)/pertussis toxin-induced experimental allergic encephalomyelitis C57BL/6J mouse model assessed as reduction in IL-17A gene expression in spinal cord at 30 mg/kg, po bid measured at day 19 post MOG immunization/pertusis immunization relative to control. The class given is functional. The settings on record: 456 h.

Series [11] has as its system Mus musculus. Put plainly: Immunosuppressive activity in MOG (35 to 55 residues)/pertussis toxin-induced experimental allergic encephalomyelitis C57BL/6J mouse model assessed as reduction in CCR6 gene expression in spinal cord at 30 mg/kg, po bid measured at day 19 post MOG immunization/pertusis immunization relative to control. The class given is functional. The settings on record: 456 h.

The subject of series [12] is Mus musculus. Put plainly: Immunosuppressive activity in MOG (35 to 55 residues)/pertussis toxin-induced experimental allergic encephalomyelitis C57BL/6J mouse model assessed as reduction in IL-22 gene expression in spinal cord at 30 mg/kg, po bid measured at day 23 post MOG immunization/pertusis immunization relative to control. The settings on record: 552 h. The class given is functional.

Series [13] relates to Mus musculus. Kind of series: Immunosuppressive activity in MOG (35 to 55 residues)/pertussis toxin-induced experimental allergic encephalomyelitis C57BL/6J mouse model assessed as reduction in CCR6 gene expression in spinal cord at 30 mg/kg, po bid measured at day 23 post MOG immunization/pertusis immunization relative to control. Format: functional. The settings on record: 552 h.

Series [14] is described as follows: Metabolic stability in mouse liver microsomes assessed as parent compound remaining at 1 uM preincubated for 5 mins followed by NADPH addition after 30 mins by LC-MS/MS analysis. The settings on record: read-out: Stability. The class given is ADME, Microsome.

What is called Cmax is the maximum level reached in the sampled fluid or tissue. A word on the bioavailability: it is dose-corrected exposure relative to a reference, in per cent. One may read the AUC as the area under the concentration-time curve, a measure of exposure. A high value points to high exposure. As usually defined, the inhibition in vivo is the percentage by which the read-out fell short of the control. Broadly, the IC50 is the point on the concentration scale where inhibition reaches its midpoint. Read a low IC50 as higher potency. Take `O=C(O)c1ccc(-n2cc(C(=O)c3c(Cl)cccc3Cl)c3cccc(F)c32)cc1`: the remaining at 1 h in [1] is 100%. Besides, the remaining at 2 h in series [2] is 99%. Also, the fraction unbound in series [3] was < 0.03. Moreover, the highest level in [4] (Cmax) was 6.2 µM. Further, the bioavailability in [5] was determined as 72%. The AUC was 0.29 µM·h in series [6] and 11 µM·h in series [7]. Further, in the series on Mus musculus [8], the inhibition in vivo at 3 mg/kg worked out at 25%. Also, the half-inhibitory concentration (IC50) in series [9] is > 10 µM. In addition, the inhibition in vivo at 30 mg/kg in the series on Mus musculus [10] is 30%; in the series on Mus musculus [11], 60%; with Mus musculus [12], 24%; with Mus musculus [13] it was 36%. Further, the remaining at 0.5 h, 1 µM in [14] was 78%.
